Source: publication PMC8126888 (RSC Medicinal Chemistry, 2020)
In brackets after ≈: the same amount, converted by molar mass.

Legend:
[1] = system: Leishmania infantum (MHOM/MA/67/ITMAP-263) intracellular amastigotes in THP-1; conditions: THP-1 host cells, 120 hours
[2] = system: primary peritoneal mouse macrophages (PMM); conditions: cytotoxicity to PMM; geometric mean of a minimum of two experiments ± standard error
THP-1 cells = conditions: 120 hours, Alamar Blue
[3] = system: Leishmania infantum MHOM/MA(BE)/67/ITMAP263 intracellular amastigotes; conditions: intracellular amastigotes in PMM; geometric mean of a minimum of two experiments ± standard error
Vero = test: cells; conditions: Chlorocebus sabaeus, read-out: Vero IC50
in vitro [4] = conditions: human; for CC50 at 120 h: THP-1 cells differentiated with PMA
[5] = system: L. donovani MHOM/SD/62/1SCL2D intracellular amastigotes; test: microbe, parasite or virus in culture; conditions: Leishmania donovani, read-out: L. donovani MHOM/SD/62/1SCL2D intracellular amastigotes IC50
in vitro [6] = conditions: human, HepG2 cells
[7] = metabolite ID, peak area of substrate or metabolite
[8] = system: Leishmania infantum MHOM/MA(BE)/67/ITMAP263 intracellular amastigotes; test: microbe, parasite or virus in culture; conditions: Macrophage, in Mus musculus, read-out: L. inf. pIC50, intracellular amastigotes in PMM (converted), geometric mean of a minimum of two experiments ± standard error
in vitro [9] = conditions: human, microsomes, pH 7.4, Microsome Clint,u Human, Table 2; intrinsic in vitro clearance, liver microsomes
physchem [10] = conditions: HPLC, Ascentis Express RP Amide column, pH 7.4, elog D, HPLC measured log D, pH 7.4
[11] = system: primary peritoneal mouse macrophages (PMM); test: cells; conditions: Macrophage, read-out: PMM pIC50 (converted)
[12] = metabolite ID, peak area of substrate or metabolite; remark: listed apart in the source
physchem [13] = conditions: aqueous medium
[14] = versus the preceding analogue
in vitro [15] = conditions: mouse, microsomes, pH 7.4, Microsome Clint,u Mouse, Table 2; intrinsic in vitro clearance, liver microsomes
in vitro [16] = conditions: plasma, Plasma protein binding (PPB)
[17] = 6 h incubation in mouse plasma
[18] = system: Leishmania infantum (MHOM/MA/67/ITMAP-263) intracellular amastigotes in THP-1; test: microbe, parasite or virus in culture; conditions: THP-1, 120 h, read-out: Intracellular activity pIC50 L. inf. in THP-1 (converted)

COc1ccc(OC)c(S(=O)(=O)N(Cc2ccc(F)cc2)Cc2oc(C)nc2C)c1 [SI51]
Intracellular activity pIC50 L. inf. in THP-1 [1]: 4.51±0.03
PMM pIC50 [2]: < 4.19
pIC50 Cytotoxicity THP-1 (THP-1 cells): < 4.19
L. inf. pIC50 [3]: 5.63±0.04

O=S(=O)(c1ccc2nncn2c1)N(Cc1cccc(F)c1)c1ccc2c(c1)OCO2 [DNDI0003321886]
IC50 (Vero): 35 µM
CC50 at 120 h (in vitro [4]): > 50 µM
IC50 [5]: > 50 µM
CC50 (in vitro [6]): > 50 µM

COc1ccc(C2c3cccn3CCN2S(=O)(=O)c2ccc3ccccc3c2)cc1 (stereo not shown) [DNDI0003355838]
IC50 (Vero): > 50 µM
CC50 at 120 h (in vitro [4]): > 50 µM
IC50 [5]: > 50 µM
CC50 (in vitro [6]): > 50 µM

COc1ccc(CN(c2ccc3c(c2)OCO3)S(=O)(=O)c2ccc3nncn3c2)cc1 [DNDI0003321888]
IC50 (Vero): > 50 µM
CC50 at 120 h (in vitro [4]): > 50 µM
IC50 [5]: > 50 µM
CC50 (in vitro [6]): > 50 µM

COc1ccc(OC)c(S(=O)(=O)N(C)Cc2ccc(F)cc2)c1 [Compound 37]
Area% Mouse [7]: 76.1%
IC50 [8]: 11.7 µM
microsomal CLint at 0.5 μM (in vitro [9]): 414 µL/min/mg
chromatographic logD (physchem [10]): 3.7
IC50 [11]: > 64.6 µM
Area% Human [12]: 22.5%

COc1ccc(C(=O)N2CCOCC2)cc1S(=O)(=O)N(Cc1ccccc1)Cc1cnc(C(F)(F)F)nc1 [Compound 47]
IC50 [8]: 4.47 µM
solubility kinetic (physchem [13]; pH 2.0, pH 2): 11.3 µg/mL (≈ 20.5 µM)
solubility kinetic (physchem [13]; pH 7.4, pH 7.4): 6.2 µg/mL (≈ 11.3 µM)
IC50 at 120 h (in vitro [4]; PMA-differentiated THP-1 cells): > 64.6 µM
improvement in the in vitro mouse clearance [14]: 4 fold
microsomal CLint at 0.5 h, 0.5 µM (in vitro [15]): 152 µL/min/mg
microsomal CLint at 0.5 h, 0.5 µM (in vitro [9]): 73 µL/min/mg
chromatographic logD (physchem [10]): 3.5
fraction unbound (in vitro [16]): 0.117
Mouse plasma stability (6 h) [17]: 42 % remaining
IC50 [11]: > 64.6 µM
IC50 [18]: > 64.6 µM
